# Strand notation (5' to 3'): a small letter for the sugar, then the base; units joined by * are phosphorothioate-linked, units joined directly phosphodiester-linked; [ ] holds rarer units or linkages, { } end groups; capitals alone tell only the bases. e = 2'-O-(2-methoxyethyl) (MOE); [5mC] = 5-methylcytosine; d = 2'-deoxy (DNA)
# Experiments:
# [1] = Plasma cholesterol and triglyceride levels in huApoB/huCETP/mLDLr mouse model (Example 7); format: in vivo, mice; conditions: huApoB+/−huCETP+/−mLDLr+/− mice (Groups B-E), ASO 25 mg/kg s.c. twice/week
# Description: The huApoB^+/−huCETP^+/−mLDLr^+/− mice were divided into five groups of 5-7 mice each. […] The saline-injected group served as the control group to which oligonucleotide-treated groups were compared. […] This group served a negative control for the effects of the antisense oligonucleotides against CETP. The groups are further described in Table 27, and are designated letters A-F, by which they will be referred from henceforth.
# HDL and LDL cholesterol were individually measured by HPLC. Triglyceride levels were measured on weeks 0, 3 and 6 with the use of a commercially available triglyceride kit (DCL Triglyceride Reagent; Diagnostic Chemicals Ltd.).
# [2] = test system: human CETP mRNA; assay: Antisense inhibition of human CETP mRNA in SW872 liposarcoma cells (Example 1); format: cell-based; conditions: 150 nM antisense oligonucleotide, lipofectin, ~24 hours, relative to untreated control cells
# Procedure: Antisense oligonucleotides targeted to a CETP nucleic acid were tested for their effect on CETP mRNA transcript in vitro. Cultured SW872 liposarcoma cells at a density of 50,000 cells per well in a 24-well plate were transfected using lipofectin reagent with 150 nM antisense oligonucleotide. After approximately 24 hours, RNA was isolated from the cells and CETP mRNA levels were measured by quantitative real-time PCR. A human primer probe set (forward sequence […], designated herein as SEQ ID NO: 38; reverse sequence GGCTCACGCCTTTGCTGTT, designated herein as SEQ ID NO: 39; probe sequence […], designated herein as SEQ ID NO: 40) was used to quantitate CETP mRNA. CETP mRNA transcript levels were adjusted according to total RNA content, as measured by the house-keeping gene, GAPDH mRNA levels. GAPDH was measured using a primer probe set with the sequence as set forth in SEQ ID NOs: 10, 11, 13. Results are presented as percent inhibition of CETP, relative to untreated control cells.
# The antisense oligonucleotides in Table 3 are 5-10-5 gapmers, where the gap segment comprises ten 2′-deoxynucleosides and each wing segment comprises five 2′-MOE nucleosides. Each nucleotide in the 5′ wing segment and each nucleotide in the 3′ wing segment has a 2′-MOE modification. The internucleoside linkages throughout each gapmer are phosphorothioate (P═S) linkages. All cytosine residues throughout each gapmer are 5-methylcytosines. ‘Target start site’ indicates the 5′-most nucleotide to which the antisense oligonucleotide is targeted. ‘Target stop site’ indicates the 3′-most nucleotide to which the antisense oligonucleotide is targeted. All the antisense oligonucleotides listed in Table 3 target human CETP mRNA, designated herein as SEQ ID NO: 1 (GENBANK Accession No. M30185.1).
# [3] = test system: human CETP mRNA; assay: Antisense inhibition of human CETP mRNA in primary hepatocytes from huCETP transgenic mice (Example 4); format: cell-based, mouse; conditions: cytofectin, ~24 hours
# Procedure: Transgenic mice expressing human CETP, controlled by its natural flanking region, increase expression of this gene in response to hypercholesterolemia (Jiang, X. C. et al., J. Clin. Invest. 1992. 90: 1290-1295). These mice were utilized for the following studies. Antisense oligonucleotides targeted to a CETP nucleic acid and described in Example 1 were tested for their effect on CETP mRNA transcript in vitro. Cultured primary hepatocytes from huCETP transgenic mice, at a density of 17,500 cells per well in a 96-well plate, were transfected using cytofectin reagent with 100 nM or 200 nM antisense oligonucleotide. After approximately 24 hours, RNA was isolated from the cells and CETP mRNA levels were measured by quantitative real-time PCR. CETP mRNA transcript levels were adjusted according to total RNA content, as measured by the house-keeping gene, GAPDH mRNA levels. Results are presented in Table 6 as percent inhibition of CETP, relative to untreated control cells.
Compound,% inhibition [2] [%],Percent inhibition of human CETP mRNA ([3]; 100 nM) [%],Percent inhibition of human CETP mRNA ([3]; 200 nM) [%],other results
"O=C(O)c1cccnc1 [Nicotinic acid, nicotinic acid, reference compound]",,,,% HDL/total cholesterol ([1]; Week 0): 23%; HDL cholesterol levels ([1]; Week 0): 45 mg/dL; LDL cholesterol levels ([1]; Week 0): 122 mg/dL; Total cholesterol levels ([1]; Week 0): 195 mg/dL; Triglyceride levels ([1]; Week 0): 134 mg/dL; % HDL/total cholesterol ([1]; Week 3): 34%; HDL cholesterol levels ([1]; Week 3): 57 mg/dL; LDL cholesterol levels ([1]; Week 3): 102 mg/dL; Total cholesterol levels ([1]; Week 3): 169 mg/dL; Triglyceride levels ([1]; Week 3): 108 mg/dL; % HDL/total cholesterol ([1]; Week 6): 39%; HDL cholesterol levels ([1]; Week 6): 65 mg/dL; LDL cholesterol levels ([1]; Week 6): 102 mg/dL; Total cholesterol levels ([1]; Week 6): 170 mg/dL; Triglyceride levels ([1]; Week 6): 138 mg/dL
ISIS 133837: 5-10-5 MOE gapmer TCCACCAGCAGGTGCTCAGG (eT*e[5mC]*e[5mC]*eA*e[5mC]*d[5mC]*dA*dG*d[5mC]*dA*dG*dG*dT*dG*d[5mC]*eT*e[5mC]*eA*eG*eG),70,,,
ISIS 349444: 5-10-5 MOE gapmer TCCTGGCCCCAGAGATTCAC (eT*e[5mC]*e[5mC]*eT*eG*dG*d[5mC]*d[5mC]*d[5mC]*d[5mC]*dA*dG*dA*dG*dA*eT*eT*e[5mC]*eA*e[5mC]),20,59,0,
ISIS 349445: 5-10-5 MOE gapmer CAGCAGGGTCTTCCTGGCCC (e[5mC]*eA*eG*e[5mC]*eA*dG*dG*dG*dT*d[5mC]*dT*dT*d[5mC]*d[5mC]*dT*eG*eG*e[5mC]*e[5mC]*e[5mC]),6,74,71,
ISIS 349446: 5-10-5 MOE gapmer GGAACATGAGGCTCTTCCGG (eG*eG*eA*eA*e[5mC]*dA*dT*dG*dA*dG*dG*d[5mC]*dT*d[5mC]*dT*eT*e[5mC]*e[5mC]*eG*eG),0,34,36,
ISIS 349447: 5-10-5 MOE gapmer TATGTATGTCCGCCCAGCCC (eT*eA*eT*eG*eT*dA*dT*dG*dT*d[5mC]*d[5mC]*dG*d[5mC]*d[5mC]*d[5mC]*eA*eG*e[5mC]*e[5mC]*e[5mC]),15,57,28,
ISIS 349448: 5-10-5 MOE gapmer CCGTATATGTATGTCCGCCC (e[5mC]*e[5mC]*eG*eT*eA*dT*dA*dT*dG*dT*dA*dT*dG*dT*d[5mC]*e[5mC]*eG*e[5mC]*e[5mC]*e[5mC]),0,53,40,
ISIS 349449: 5-10-5 MOE gapmer CGAGCCGTTCAGCCTGGAGC (e[5mC]*eG*eA*eG*e[5mC]*d[5mC]*dG*dT*dT*d[5mC]*dA*dG*d[5mC]*d[5mC]*dT*eG*eG*eA*eG*e[5mC]),28,68,63,
ISIS 349450: 5-10-5 MOE gapmer GCAGTGGTGTGTAAGTGGCC (eG*e[5mC]*eA*eG*eT*dG*dG*dT*dG*dT*dG*dT*dA*dA*dG*eT*eG*eG*e[5mC]*e[5mC]),21,89,59,
ISIS 349451: 5-10-5 MOE gapmer GCAGCCAGCATGGTTATCAG (eG*e[5mC]*eA*eG*e[5mC]*d[5mC]*dA*dG*d[5mC]*dA*dT*dG*dG*dT*dT*eA*eT*e[5mC]*eA*eG),23,42,54,
ISIS 349452: 5-10-5 MOE gapmer CAGGACTGTGGCAGCCAGCA (e[5mC]*eA*eG*eG*eA*d[5mC]*dT*dG*dT*dG*dG*d[5mC]*dA*dG*d[5mC]*e[5mC]*eA*eG*e[5mC]*eA),75,60,51,
ISIS 349453: 5-10-5 MOE gapmer GCATTGCCCAGCAGGGCCAG (eG*e[5mC]*eA*eT*eT*dG*d[5mC]*d[5mC]*d[5mC]*dA*dG*d[5mC]*dA*dG*dG*eG*e[5mC]*e[5mC]*eA*eG),45,2,26,
